# From patent publication US8192962B2, “Processes for detecting toxic substances” (Daikin Industries, Ltd., priority 2001, dated 2012)
# Tested on: Detoxification protein genes
# Test: DNA chip mRNA expression in yeast, detoxification protein genes (Table 8)
# Assay type: cell-based, Saccharomyces cerevisiae S288C
# Method in brief: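 Whole-genome yeast DNA chip hybridization (65° C., >12 h) of Cy-labeled cDNA from S288C cells exposed 2 h at 25° C. to a sub-lethal toxicant dose in YPD; value is intensity relative to chemical-free control.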
smiles,measurement,setting,value
"CCCCCCCCCCCCOS(=O)(=O)[O-].[Na+] [(18), sodium lauryl sulfate]",The level of expressed mRNA in the presence of chemical substance/The level of expressed mRNA in the absence of chemical substance,yeast gene YBL064C,2.3
same,The level of expressed mRNA in the presence of chemical substance/The level of expressed mRNA in the absence of chemical substance,yeast gene YBR008C,1.2
same,The level of expressed mRNA in the presence of chemical substance/The level of expressed mRNA in the absence of chemical substance,yeast gene YBR145W,2.0
same,The level of expressed mRNA in the presence of chemical substance/The level of expressed mRNA in the absence of chemical substance,yeast gene YBR244W,1.2
same,The level of expressed mRNA in the presence of chemical substance/The level of expressed mRNA in the absence of chemical substance,yeast gene YBR293W,0.9
same,The level of expressed mRNA in the presence of chemical substance/The level of expressed mRNA in the absence of chemical substance,yeast gene YCL035C,4.2
same,The level of expressed mRNA in the presence of chemical substance/The level of expressed mRNA in the absence of chemical substance,yeast gene YCL069W,1.0
same,The level of expressed mRNA in the presence of chemical substance/The level of expressed mRNA in the absence of chemical substance,yeast gene YCR083W,1.3
same,The level of expressed mRNA in the presence of chemical substance/The level of expressed mRNA in the absence of chemical substance,yeast gene YDL100C,1.4
same,The level of expressed mRNA in the presence of chemical substance/The level of expressed mRNA in the absence of chemical substance,yeast gene YDL168W,0.8
same,The level of expressed mRNA in the presence of chemical substance/The level of expressed mRNA in the absence of chemical substance,yeast gene YDR256C,2.0
same,The level of expressed mRNA in the presence of chemical substance/The level of expressed mRNA in the absence of chemical substance,yeast gene YDR453C,1.5
same,The level of expressed mRNA in the presence of chemical substance/The level of expressed mRNA in the absence of chemical substance,yeast gene YDR513W,3.2
same,The level of expressed mRNA in the presence of chemical substance/The level of expressed mRNA in the absence of chemical substance,yeast gene YDR538W,0.9
same,The level of expressed mRNA in the presence of chemical substance/The level of expressed mRNA in the absence of chemical substance,yeast gene YEL027W,1.4
same,The level of expressed mRNA in the presence of chemical substance/The level of expressed mRNA in the absence of chemical substance,yeast gene YEL065W,0.6
same,The level of expressed mRNA in the presence of chemical substance/The level of expressed mRNA in the absence of chemical substance,yeast gene YER185W,1.1
same,The level of expressed mRNA in the presence of chemical substance/The level of expressed mRNA in the absence of chemical substance,yeast gene YFL050C,1.0
same,The level of expressed mRNA in the presence of chemical substance/The level of expressed mRNA in the absence of chemical substance,yeast gene YGL013C,1.0
same,The level of expressed mRNA in the presence of chemical substance/The level of expressed mRNA in the absence of chemical substance,yeast gene YGL254W,1.2
same,The level of expressed mRNA in the presence of chemical substance/The level of expressed mRNA in the absence of chemical substance,yeast gene YGR088W,2.0
same,The level of expressed mRNA in the presence of chemical substance/The level of expressed mRNA in the absence of chemical substance,yeast gene YGR138C,0.7
same,The level of expressed mRNA in the presence of chemical substance/The level of expressed mRNA in the absence of chemical substance,yeast gene YGR197C,1.9
same,The level of expressed mRNA in the presence of chemical substance/The level of expressed mRNA in the absence of chemical substance,yeast gene YGR209C,2.4
same,The level of expressed mRNA in the presence of chemical substance/The level of expressed mRNA in the absence of chemical substance,yeast gene YGR224W,1.3
same,The level of expressed mRNA in the presence of chemical substance/The level of expressed mRNA in the absence of chemical substance,yeast gene YHL040C,1.0
same,The level of expressed mRNA in the presence of chemical substance/The level of expressed mRNA in the absence of chemical substance,yeast gene YHL047C,1.2
same,The level of expressed mRNA in the presence of chemical substance/The level of expressed mRNA in the absence of chemical substance,yeast gene YHR008C,1.0
same,The level of expressed mRNA in the presence of chemical substance/The level of expressed mRNA in the absence of chemical substance,yeast gene YHR048W,0.9
same,The level of expressed mRNA in the presence of chemical substance/The level of expressed mRNA in the absence of chemical substance,yeast gene YHR053C,0.5
same,The level of expressed mRNA in the presence of chemical substance/The level of expressed mRNA in the absence of chemical substance,yeast gene YHR055C,0.6
same,The level of expressed mRNA in the presence of chemical substance/The level of expressed mRNA in the absence of chemical substance,yeast gene YIR002C,1.2
same,The level of expressed mRNA in the presence of chemical substance/The level of expressed mRNA in the absence of chemical substance,yeast gene YIR038C,2.0
same,The level of expressed mRNA in the presence of chemical substance/The level of expressed mRNA in the absence of chemical substance,yeast gene YJL101C,1.0
same,The level of expressed mRNA in the presence of chemical substance/The level of expressed mRNA in the absence of chemical substance,yeast gene YJR104C,1.1
same,The level of expressed mRNA in the presence of chemical substance/The level of expressed mRNA in the absence of chemical substance,yeast gene YKL026C,3.3
same,The level of expressed mRNA in the presence of chemical substance/The level of expressed mRNA in the absence of chemical substance,yeast gene YKL064W,1.3
same,The level of expressed mRNA in the presence of chemical substance/The level of expressed mRNA in the absence of chemical substance,yeast gene YKR066C,1.1
same,The level of expressed mRNA in the presence of chemical substance/The level of expressed mRNA in the absence of chemical substance,yeast gene YKR105C,1.0
same,The level of expressed mRNA in the presence of chemical substance/The level of expressed mRNA in the absence of chemical substance,yeast gene YKR106W,0.8
same,The level of expressed mRNA in the presence of chemical substance/The level of expressed mRNA in the absence of chemical substance,yeast gene YLL028W,1.2
same,The level of expressed mRNA in the presence of chemical substance/The level of expressed mRNA in the absence of chemical substance,yeast gene YLL057C,1.3
same,The level of expressed mRNA in the presence of chemical substance/The level of expressed mRNA in the absence of chemical substance,yeast gene YLL060C,2.3
same,The level of expressed mRNA in the presence of chemical substance/The level of expressed mRNA in the absence of chemical substance,yeast gene YLR043C,2.2
same,The level of expressed mRNA in the presence of chemical substance/The level of expressed mRNA in the absence of chemical substance,yeast gene YLR046C,5.4
same,The level of expressed mRNA in the presence of chemical substance/The level of expressed mRNA in the absence of chemical substance,yeast gene YML028W,1.5
same,The level of expressed mRNA in the presence of chemical substance/The level of expressed mRNA in the absence of chemical substance,yeast gene YML116W,1.0
same,The level of expressed mRNA in the presence of chemical substance/The level of expressed mRNA in the absence of chemical substance,yeast gene YMR015C,1.0
same,The level of expressed mRNA in the presence of chemical substance/The level of expressed mRNA in the absence of chemical substance,yeast gene YMR038C,1.3
same,The level of expressed mRNA in the presence of chemical substance/The level of expressed mRNA in the absence of chemical substance,yeast gene YNL239W,1.4
same,The level of expressed mRNA in the presence of chemical substance/The level of expressed mRNA in the absence of chemical substance,yeast gene YNL241C,1.0
same,The level of expressed mRNA in the presence of chemical substance/The level of expressed mRNA in the absence of chemical substance,yeast gene YNL259C,2.4
same,The level of expressed mRNA in the presence of chemical substance/The level of expressed mRNA in the absence of chemical substance,yeast gene YOL158C,1.7
same,The level of expressed mRNA in the presence of chemical substance/The level of expressed mRNA in the absence of chemical substance,yeast gene YOR031W,2.4
same,The level of expressed mRNA in the presence of chemical substance/The level of expressed mRNA in the absence of chemical substance,yeast gene YOR153W,3.1
same,The level of expressed mRNA in the presence of chemical substance/The level of expressed mRNA in the absence of chemical substance,yeast gene YOR247W,0.9
same,The level of expressed mRNA in the presence of chemical substance/The level of expressed mRNA in the absence of chemical substance,yeast gene YOR251C,1.3
same,The level of expressed mRNA in the presence of chemical substance/The level of expressed mRNA in the absence of chemical substance,yeast gene YOR273C,3.1
same,The level of expressed mRNA in the presence of chemical substance/The level of expressed mRNA in the absence of chemical substance,yeast gene YPL163C,1.4
same,The level of expressed mRNA in the presence of chemical substance/The level of expressed mRNA in the absence of chemical substance,yeast gene YPR200C,1.0
